Assay results taken from US8282778B2, “Prevention of bacterial spore formation in a broke system of a board machine” (Kemira Oyj, priority 2006, dated 2012).
Like-named read-outs stand apart in the source and are kept apart here.

Tests used:
[1] = tested on: Bacillus licheniformis 217 strain; test: Example 1: sporulation of bacilli isolated from a board machine in sterilized dilute broke with spray starch; format: cell-based
Description: In this laboratory experiment, the effect of bivalent manganese and bivalent iron as well as a chelating agent (DTPA, diethylenetriaminepentaacetic acid) on the sporulation of bacilli isolated from a board machine was studied under conditions of the broke system. For the experiment, an inoculum free of spores was prepared from the Bacillus licheniformis 217 strain by carrying out three consecutive cultivations in a liquid medium for 24 hours (Tryptone-Yeast Extract Medium, +50° C., agitation at 100 rpm) using a low inoculation ratio (0.1% by volume/volume). Broke free of spores was produced by sterilizing dilute broke of the board machine. A low amount of spray starch used in the board machine was added to the broke to make up for the amount of starch consumed by bacterial activity during the transportation of the broke sample to the laboratory. The broke was divided into aliquots of 25 ml each and filled in tubes, followed by the addition of the test agents at different concentrations. […] The amounts of aerobic bacteria and aerobic spores in each tube were determined after different exposure times. The amount of aerobic bacteria were determined by a filtering method, whereas aerobic spores were determined from pasteurized (20 min, 80° C.) samples using the pour plate method (Plate Count Agar in both cases, 45° C., 3 d).

[2] = tested on: Bacillus licheniformis 217 strain; test: Example 3: sporulation of bacilli in broke, metals, DTPA and test product C; format: cell-based
Description: In this laboratory experiment, the effect of bivalent manganese and bivalent iron as well as a chelating agent (DTPA, diethylenetriaminepentaacetic acid) on the sporulation of bacilli isolated from a board machine was studied under conditions of the broke system. For the experiment, an inoculum free of spores was prepared from the Bacillus licheniformis 217 strain by carrying out three consecutive cultivations in a liquid medium for 24 hours (Tryptone-Yeast Extract Medium, +50° C., agitation at 100 rpm) using a low inoculation ratio (0.1% by volume/volume). Broke free of spores was produced by sterilizing dilute broke of the board machine. A low amount of spray starch used in the board machine was added to the broke to make up for the amount of starch consumed by bacterial activity during the transportation of the broke sample to the laboratory. The broke was divided into aliquots of 25 ml each and filled in tubes, followed by the addition of the test agents at different concentrations. 0.2% stock solutions of manganese (Mn(II)Cl2×4H2O) and iron (Fe(II)SO4×7H2O) in deionized water were sterile filtered using 0.2 μm spray filters. 25 μl of the Bacillus culture free of spores were added to each tube, followed by keeping the tubes at 45° C. (agitation at 100 rpm). The amounts of aerobic bacteria and aerobic spores in each tube were determined after different exposure times. The amount of aerobic bacteria were determined by a filtering method, whereas aerobic spores were determined from pasteurized (20 min, 80° C.) samples using the pour plate method (Plate Count Agar in both cases, 45° C., 3 d).
In this laboratory experiment, the effect of a test product C containing a dispersing agent and DTPA on sporulation of bacilli isolated from a board machine was studied under the conditions in the broke system. […]

[3] = pulping process; cited from earlier work
[4] = tested on: Bacillus subtilis bacteria; settings: cited from earlier work
aconitase enzyme = aconitase enzyme (Bacillus subtilis, UniProt P09339); settings: concentrations of less than 1 mM; cited from earlier work
aconitase enzyme, sequence (P09339 whole entry): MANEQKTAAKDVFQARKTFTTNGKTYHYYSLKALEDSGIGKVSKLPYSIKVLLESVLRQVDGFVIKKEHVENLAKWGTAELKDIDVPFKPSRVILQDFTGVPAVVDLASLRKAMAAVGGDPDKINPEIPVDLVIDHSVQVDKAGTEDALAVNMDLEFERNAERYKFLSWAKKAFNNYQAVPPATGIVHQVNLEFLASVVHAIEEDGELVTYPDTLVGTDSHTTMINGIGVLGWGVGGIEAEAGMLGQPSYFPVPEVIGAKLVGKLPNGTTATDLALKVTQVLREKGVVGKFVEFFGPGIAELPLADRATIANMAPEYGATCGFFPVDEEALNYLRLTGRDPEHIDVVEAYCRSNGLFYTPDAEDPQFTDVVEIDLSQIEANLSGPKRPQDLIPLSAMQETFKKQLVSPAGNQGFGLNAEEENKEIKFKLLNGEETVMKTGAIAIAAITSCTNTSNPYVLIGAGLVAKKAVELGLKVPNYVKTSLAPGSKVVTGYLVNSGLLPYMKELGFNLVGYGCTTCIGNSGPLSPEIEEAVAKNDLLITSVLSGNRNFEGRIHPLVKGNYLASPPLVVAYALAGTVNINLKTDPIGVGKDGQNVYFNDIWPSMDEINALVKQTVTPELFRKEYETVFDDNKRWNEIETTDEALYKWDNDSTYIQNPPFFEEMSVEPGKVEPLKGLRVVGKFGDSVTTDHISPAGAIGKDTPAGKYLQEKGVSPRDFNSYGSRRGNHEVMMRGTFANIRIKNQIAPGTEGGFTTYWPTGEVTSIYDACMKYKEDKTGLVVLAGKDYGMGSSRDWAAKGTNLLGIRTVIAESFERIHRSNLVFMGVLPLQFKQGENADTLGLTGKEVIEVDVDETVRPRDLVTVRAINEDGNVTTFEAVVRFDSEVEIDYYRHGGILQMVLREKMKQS

[5] = tested on: Bacillus subtilis bacteria; settings: cited from earlier work; remark: listed apart in the source

What does the source list for O=C(O)CN(CCN(CC(=O)O)CC(=O)O)CCN(CC(=O)O)CC(=O)O [DTPA, diethylenetriaminepentaacetic acid]?
reduction of sporulation ([1]; 12.5 ppm (as active agent)): 79%; inhibition of sporulation ([1]; 17.5 ppm): total inhibition; toxicity to bacilli (amount of aerobic bacteria, FIG. 5) [2]: neither DTPA nor the test product C was toxic; reduction of sporulation ([2]; 12 ppm (as active agent)): 99.4%; sporulation frequency ([2]; 12 ppm (as active agent)): 0.11%

For O=P(O)(O)CN(CCN(CP(=O)(O)O)CP(=O)(O)O)CCN(CP(=O)(O)O)CP(=O)(O)O [DTPMP, diethylenetriamine-pentakis methylenephosphonic acid], which “chelating performance for manganese” value [3] is on record?
Its value is “over 95%”.

What does the source list for O=C(O)c1ccccn1 [alpha picolinic acid]?
sporulation ([4]; concentration of 0.4 mM): reduced sporulation; growth ([4]; concentrations of less than 1 mM (<123 ppm)): not inhibited

For c1ccc(-c2ccccn2)nc1 [dipyridyl], which aconitase enzyme inhibition (aconitase enzyme) is on record?
The aconitase enzyme inhibition was “inhibited”.

Which “amount of sporulating cells of the wild type strain” value ([5]; 0.006 ppm manganese addition) does the source give for [Mn+2] [manganese] here?
The value was “about 2.6%”.

What about the “amount of sporulating cells of the wild type strain” value ([5]; 0.8 ppm of manganese added) of the same compound?
The value was 39%.

And the “amount of sporulating cells” value ([5]; manganese addition of 0.1 ppm or more, growth medium rich in nutrients)?
The value was “increased”.

With c1cnc2c(c1)ccc1cccnc12 [o-phenanthroline] as the compound, how does the aconitase enzyme inhibition (aconitase enzyme) read?
Its aconitase enzyme inhibition is “inhibited”.

For O=C(O)c1ccc2ccccc2n1 [quinaldic acid], which aconitase enzyme inhibition (aconitase enzyme) is on record?
The aconitase enzyme inhibition was “inhibited”.
